Experimental data taken from ChEMBL document CHEMBL4680278 (J Med Chem, 2020).

Experiments:
[1] = Apparent oral clearance in human in fed state at 5 to 20 mg using oromucosal-spray formulation cotreated with THC by GC-MS analysis; format: ADME; settings: in vivo, dose 5-20 mg
Cytochrome P450 1A1 = target: T1, Cytochrome P450 1A1 (Homo sapiens, UniProt P04798); assay: Competitive inhibition of human recombinant CYP1A1 using 7-Ethoxyresorufin as substrate by Lineweaver-Burk plot analysis; format: ADME; settings: read-out: Ki(app)
T1 sequence (P04798 whole entry): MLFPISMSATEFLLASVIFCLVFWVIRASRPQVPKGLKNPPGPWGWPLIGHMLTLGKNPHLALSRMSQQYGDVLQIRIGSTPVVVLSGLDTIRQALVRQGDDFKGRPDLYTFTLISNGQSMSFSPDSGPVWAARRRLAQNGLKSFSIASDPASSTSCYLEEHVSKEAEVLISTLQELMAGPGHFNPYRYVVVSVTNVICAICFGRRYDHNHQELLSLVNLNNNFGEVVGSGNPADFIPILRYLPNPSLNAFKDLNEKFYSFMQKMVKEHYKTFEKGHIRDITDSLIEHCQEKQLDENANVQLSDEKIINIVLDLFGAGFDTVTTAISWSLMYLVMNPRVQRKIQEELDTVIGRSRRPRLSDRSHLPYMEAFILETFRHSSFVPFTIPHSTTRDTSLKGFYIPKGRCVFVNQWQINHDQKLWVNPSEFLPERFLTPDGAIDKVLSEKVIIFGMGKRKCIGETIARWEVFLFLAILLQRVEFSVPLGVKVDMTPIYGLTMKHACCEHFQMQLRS

Cytochrome P450 2C11 = target: T2, Cytochrome P450 2C11 (Rattus norvegicus, UniProt P08683); assay: Competitive inhibition of CYP2C11 in rat liver microsomes; format: ADME
T2 sequence (P08683 whole entry): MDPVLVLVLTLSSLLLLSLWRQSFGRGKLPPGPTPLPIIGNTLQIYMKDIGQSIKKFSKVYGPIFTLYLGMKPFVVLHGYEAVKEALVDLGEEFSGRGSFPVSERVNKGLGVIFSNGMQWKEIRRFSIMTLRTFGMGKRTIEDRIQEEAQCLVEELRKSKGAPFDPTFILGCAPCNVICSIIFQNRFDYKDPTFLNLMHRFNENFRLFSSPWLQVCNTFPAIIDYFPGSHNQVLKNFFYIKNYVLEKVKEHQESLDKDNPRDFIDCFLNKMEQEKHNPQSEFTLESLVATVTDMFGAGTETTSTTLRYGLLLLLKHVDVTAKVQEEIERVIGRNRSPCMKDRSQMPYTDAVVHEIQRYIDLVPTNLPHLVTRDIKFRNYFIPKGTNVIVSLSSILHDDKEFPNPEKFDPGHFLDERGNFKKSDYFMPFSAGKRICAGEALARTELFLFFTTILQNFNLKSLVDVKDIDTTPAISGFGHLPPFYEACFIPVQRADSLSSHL

[2] = target: T3, Steroid 17-alpha-hydroxylase/17,20 lyase (Rattus norvegicus, UniProt P11715); assay: Mixed type inhibition of CYP17 in Sprague-Dawley rat testis microsomes assessed as reduction in 17alpha-Hydroxylase activity in presence of NADPH-generating system incubated for 2 mins by Lineweaver-Burk plot analysis; format: ADME
T3 sequence (P11715 whole entry): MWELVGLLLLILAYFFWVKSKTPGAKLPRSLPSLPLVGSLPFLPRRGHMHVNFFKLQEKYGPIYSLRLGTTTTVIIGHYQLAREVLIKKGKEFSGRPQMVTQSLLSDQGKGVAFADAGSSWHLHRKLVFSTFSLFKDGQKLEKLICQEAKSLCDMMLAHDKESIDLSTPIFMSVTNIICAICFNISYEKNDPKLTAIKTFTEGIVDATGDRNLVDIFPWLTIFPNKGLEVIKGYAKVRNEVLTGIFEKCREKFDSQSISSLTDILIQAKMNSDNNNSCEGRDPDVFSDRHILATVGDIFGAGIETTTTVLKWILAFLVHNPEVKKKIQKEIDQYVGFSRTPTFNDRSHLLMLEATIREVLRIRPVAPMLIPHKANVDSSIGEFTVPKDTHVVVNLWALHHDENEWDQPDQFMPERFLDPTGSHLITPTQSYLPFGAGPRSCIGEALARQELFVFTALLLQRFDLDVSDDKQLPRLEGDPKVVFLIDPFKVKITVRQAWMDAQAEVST

Cytochrome P450 2B6 = target: T4, Cytochrome P450 2B6 (Homo sapiens, UniProt P20813); assay: Mixed type inhibition of human recombinant CYP2B6 expressed in baculovirus-infected insect cells using […] as substrate preincubated for 5 mins followed by NADPH-generating system addition by Lineweaver-Burk plot analysis; format: ADME
T4 sequence (P20813 whole entry): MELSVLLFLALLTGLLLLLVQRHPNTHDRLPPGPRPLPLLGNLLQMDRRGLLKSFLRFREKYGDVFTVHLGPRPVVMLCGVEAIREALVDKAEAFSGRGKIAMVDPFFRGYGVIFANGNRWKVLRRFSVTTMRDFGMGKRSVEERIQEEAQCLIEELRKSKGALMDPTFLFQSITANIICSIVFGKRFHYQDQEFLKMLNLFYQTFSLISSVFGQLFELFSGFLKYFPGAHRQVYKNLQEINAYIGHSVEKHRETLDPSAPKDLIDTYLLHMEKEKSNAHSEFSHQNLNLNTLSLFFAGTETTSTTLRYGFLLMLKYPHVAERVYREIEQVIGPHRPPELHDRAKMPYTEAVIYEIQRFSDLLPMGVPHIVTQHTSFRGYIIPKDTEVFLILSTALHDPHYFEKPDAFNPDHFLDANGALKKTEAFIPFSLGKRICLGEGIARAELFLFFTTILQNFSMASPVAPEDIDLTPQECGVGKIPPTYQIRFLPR

[3] = target: T5, 5-hydroxytryptamine receptor 1A (Homo sapiens, UniProt P08908); assay: Displacement of [3H]8-OH-DPAT from human 5-HT1a receptor expressed in CHO cells incubated for 30 mins by liquid scintillation counting method
T5 sequence (P08908 whole entry): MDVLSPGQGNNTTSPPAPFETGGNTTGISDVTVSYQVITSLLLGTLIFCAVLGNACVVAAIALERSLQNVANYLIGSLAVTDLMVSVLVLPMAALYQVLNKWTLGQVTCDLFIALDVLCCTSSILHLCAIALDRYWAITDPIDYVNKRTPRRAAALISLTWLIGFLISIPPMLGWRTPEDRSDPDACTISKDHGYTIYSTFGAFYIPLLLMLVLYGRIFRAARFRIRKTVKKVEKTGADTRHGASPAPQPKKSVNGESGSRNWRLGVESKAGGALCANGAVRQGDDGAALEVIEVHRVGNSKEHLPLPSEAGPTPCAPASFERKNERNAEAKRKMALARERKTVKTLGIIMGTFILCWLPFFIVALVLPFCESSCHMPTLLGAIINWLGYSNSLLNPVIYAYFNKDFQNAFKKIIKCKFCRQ

Cytochrome P450 3A5 = Cytochrome P450 3A5 (Homo sapiens, UniProt P20815); assay: Competitive inhibition of human recombinant CYP3A5 expressed in baculovirus-infected insect cells using diltiazem as substrate incubated for 15 mins followed by NADPH-generating system addition by Michaelis-Menten plot analysis; format: ADME
Sequence of Cytochrome P450 3A5 (P20815 whole entry): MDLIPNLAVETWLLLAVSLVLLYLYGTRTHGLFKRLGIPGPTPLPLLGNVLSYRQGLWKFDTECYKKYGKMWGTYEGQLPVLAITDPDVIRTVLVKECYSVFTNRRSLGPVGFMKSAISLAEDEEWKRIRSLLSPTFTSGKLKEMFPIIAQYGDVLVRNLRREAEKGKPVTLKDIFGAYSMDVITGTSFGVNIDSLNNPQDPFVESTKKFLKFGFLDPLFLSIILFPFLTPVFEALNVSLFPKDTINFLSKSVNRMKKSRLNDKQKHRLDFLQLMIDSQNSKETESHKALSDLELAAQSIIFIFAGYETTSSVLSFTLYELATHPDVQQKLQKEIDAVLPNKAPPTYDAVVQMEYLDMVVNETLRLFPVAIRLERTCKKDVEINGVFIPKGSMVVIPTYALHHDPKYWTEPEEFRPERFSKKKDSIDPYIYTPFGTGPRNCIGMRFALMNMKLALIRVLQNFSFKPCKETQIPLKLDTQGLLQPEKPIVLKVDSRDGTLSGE

[4] = Cmax in mouse brain at 10 mg/kg, sc measured after 1 to 3 hrs by HPLC analysis; format: ADME, organism-based; parameters: route subcutaneous, time lower 1 hrs, dose 10 mg/kg, time upper 3 hrs
[5] = Apparent oral clearance in human at 5 to 20 mg using oromucosal-spray formulation by GC-MS analysis; format: ADME; settings: in vivo, dose 5-20 mg

With `C=C(C)[C@@H]1CCC(C)=C[C@H]1c1c(O)cc(CCCCC)cc1O` [CANNABIDIOL] the CL/F [1] was 8880 mL/min, the Ki (Cytochrome P450 1A1) was 0.16 µM and the Ki (Cytochrome P450 2C11) was 20.7 µM. For the same molecule, the Ki [2] was 124 µM, the Ki (Cytochrome P450 2B6) was 0.69 µM and the EC50 [3] was 8 µM. It also gave a Ki (Cytochrome P450 3A5) of 0.19 µM, a Cmax [4] of 1000 nM and a CL/F [5] of 41700 mL/min.
